Measured values reported in ChEMBL document CHEMBL1201862, “PubChem BioAssay data set” (2004).
Active and inactive are the calls of the source.

Key:
H9c2 = experiment: cells; assay type: functional, cell-based; details: Rattus norvegicus, H9c2, Myocardium
[1] = target: T1, Heat shock factor protein 1 (Mus musculus, UniProt P38532); experiment: HSF1 potentiators in luciferase reporter cells, confirmation, cell-based, NIH3T3, luminescence, dose retest (AID 435004); assay type: functional;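 also: stress induced by proteasome inhibitor MG132 added 30 min after compound; luciferase reporter driven by HSF1 response element in NIH3T3 cells; actives raise luminescence as potentiators of the MG132 stress response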
T1 sequence (P38532 whole entry): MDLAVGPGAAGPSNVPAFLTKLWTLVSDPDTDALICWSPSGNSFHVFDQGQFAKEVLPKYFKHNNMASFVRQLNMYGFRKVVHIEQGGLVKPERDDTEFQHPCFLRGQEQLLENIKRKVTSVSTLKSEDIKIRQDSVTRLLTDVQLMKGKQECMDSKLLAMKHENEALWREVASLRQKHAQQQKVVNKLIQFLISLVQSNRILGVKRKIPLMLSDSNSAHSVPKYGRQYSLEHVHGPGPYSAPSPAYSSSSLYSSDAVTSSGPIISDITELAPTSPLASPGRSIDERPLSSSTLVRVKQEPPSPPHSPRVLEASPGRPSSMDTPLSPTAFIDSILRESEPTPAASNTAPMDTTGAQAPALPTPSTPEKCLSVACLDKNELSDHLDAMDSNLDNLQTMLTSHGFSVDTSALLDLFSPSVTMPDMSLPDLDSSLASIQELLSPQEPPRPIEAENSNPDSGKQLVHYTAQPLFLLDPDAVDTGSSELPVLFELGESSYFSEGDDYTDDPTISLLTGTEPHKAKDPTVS

[2] = growth suppression of PTEN-null colon cells, dose response, cell-based, HCT116 PTEN knockout (AID 1047); assay type: functional;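 also: HCT116 colon tumor cells with PTEN knocked out; cells exposed to compound for 60 hours before readout; potency for loss of cell viability measured by luminescence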
[3] = growth suppression of beta-catenin-knockout colon cells, dose response, cell-based, HCT116, human colon tumor (AID 1045); assay type: functional;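 also: HCT116 colon tumor cells with beta catenin knocked out; cells exposed to compound for 60 hours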
Large T antigen = Large T antigen (Simian virus 40, UniProt P03070); assay type: functional, Betapolyomavirus macacae;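 also: Confirmatory-stage PubChem screen for compounds that inhibit SV40 T antigen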
Chain of Large T antigen (P03070 whole entry): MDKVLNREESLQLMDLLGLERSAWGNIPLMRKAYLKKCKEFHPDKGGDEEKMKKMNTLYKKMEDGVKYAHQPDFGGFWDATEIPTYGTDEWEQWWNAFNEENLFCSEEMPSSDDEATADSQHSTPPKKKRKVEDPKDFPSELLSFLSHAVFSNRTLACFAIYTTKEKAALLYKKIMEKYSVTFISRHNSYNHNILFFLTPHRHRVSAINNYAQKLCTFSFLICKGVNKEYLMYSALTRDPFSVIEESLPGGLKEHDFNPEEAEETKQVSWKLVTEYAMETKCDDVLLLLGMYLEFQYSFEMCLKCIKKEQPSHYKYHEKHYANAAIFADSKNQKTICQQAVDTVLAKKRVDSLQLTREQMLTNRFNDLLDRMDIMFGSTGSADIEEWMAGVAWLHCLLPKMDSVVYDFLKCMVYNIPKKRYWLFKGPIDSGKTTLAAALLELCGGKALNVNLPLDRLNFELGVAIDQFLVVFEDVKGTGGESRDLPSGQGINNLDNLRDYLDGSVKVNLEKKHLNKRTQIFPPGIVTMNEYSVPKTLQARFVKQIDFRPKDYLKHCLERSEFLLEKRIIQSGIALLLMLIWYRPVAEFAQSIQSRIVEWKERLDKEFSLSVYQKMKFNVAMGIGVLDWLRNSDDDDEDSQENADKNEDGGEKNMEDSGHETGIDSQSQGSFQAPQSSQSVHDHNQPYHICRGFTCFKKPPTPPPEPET

[4] = target: T2, Polyadenylate-binding protein 1 (Homo sapiens, UniProt P11940); experiment: PABP1 MLLE–PAM2 binding inhibitor potency, dose response, biochemical, fluorescence polarization, FITC-PAM2 peptide (AID 602259); assay type: functional; details: read-out: IC50_Mean
T2 sequence (P11940 whole entry): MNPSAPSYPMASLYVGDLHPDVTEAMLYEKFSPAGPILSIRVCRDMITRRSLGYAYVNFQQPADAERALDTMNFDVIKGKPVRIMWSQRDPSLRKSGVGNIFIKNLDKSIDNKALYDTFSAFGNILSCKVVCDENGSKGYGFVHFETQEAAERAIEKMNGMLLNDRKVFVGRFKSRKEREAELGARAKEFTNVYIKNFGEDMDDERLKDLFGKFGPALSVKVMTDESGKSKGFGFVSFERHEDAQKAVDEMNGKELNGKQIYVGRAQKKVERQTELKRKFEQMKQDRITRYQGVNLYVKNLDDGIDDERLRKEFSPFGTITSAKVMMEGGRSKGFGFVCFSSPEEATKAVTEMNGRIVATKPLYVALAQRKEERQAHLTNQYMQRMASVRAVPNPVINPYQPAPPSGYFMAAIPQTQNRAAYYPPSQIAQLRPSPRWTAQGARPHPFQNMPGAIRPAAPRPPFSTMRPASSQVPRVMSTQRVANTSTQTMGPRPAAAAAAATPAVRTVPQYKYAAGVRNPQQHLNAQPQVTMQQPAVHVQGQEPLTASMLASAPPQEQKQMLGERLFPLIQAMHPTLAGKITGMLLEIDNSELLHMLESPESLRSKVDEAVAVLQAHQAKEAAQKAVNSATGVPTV

[5] = target: T2, Polyadenylate-binding protein 1; experiment: PABP1 MLLE–PAM2 interaction inhibitors, dose response, miRNA deadenylation inhibitor project, biochemical, fluorescence polarization, Cy5-PAM2 peptide, secondary (AID 602260); assay type: functional; details: read-out: IC50_Mean
[6] = target: FAD-linked sulfhydryl oxidase ALR (Homo sapiens, UniProt P55789); experiment: inhibitors of human ALR sulfhydryl oxidase, dose response, biochemical, H2O2 detection, luminescence, cherry-pick (AID 493248)
Chain of FAD-linked sulfhydryl oxidase ALR (P55789 whole entry): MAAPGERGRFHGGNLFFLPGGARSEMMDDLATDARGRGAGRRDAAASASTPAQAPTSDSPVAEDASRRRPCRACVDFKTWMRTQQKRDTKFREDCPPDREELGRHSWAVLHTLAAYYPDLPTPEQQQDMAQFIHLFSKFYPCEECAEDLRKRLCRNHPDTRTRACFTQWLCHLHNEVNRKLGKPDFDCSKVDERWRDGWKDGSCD

[7] = system: Streptococcus sp. 'group A'; experiment: growth inhibition of control SK(-) GAS strain, dose response, counter-screen for streptokinase expression inhibitor project, luminescence, kanamycin, BacTiterGlo, confirmation (AID 1900); assay type: functional, organism-based
cells = assay type: functional
Streptococcus = experiment: Group A Streptococcus viability loss, dose response, counter-screen for streptokinase expression inhibitor project, luminescence, BacTiterGlo (AID 1915); assay type: functional, organism-based;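 also: potency for reduction of bacterial viability or growth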
Vero = experiment: cells; assay type: functional; details: Chlorocebus sabaeus
[8] = target: T3, Rac GTPase-activating protein 1 (Homo sapiens, UniProt Q9H0H5); experiment: MgcRacGAP GTPase-activating activity inhibitors, confirmation, biochemical, ADP Hunter fluorescence, primary and confirmatory (AID 624330); assay type: functional
T3 sequence (Q9H0H5 whole entry): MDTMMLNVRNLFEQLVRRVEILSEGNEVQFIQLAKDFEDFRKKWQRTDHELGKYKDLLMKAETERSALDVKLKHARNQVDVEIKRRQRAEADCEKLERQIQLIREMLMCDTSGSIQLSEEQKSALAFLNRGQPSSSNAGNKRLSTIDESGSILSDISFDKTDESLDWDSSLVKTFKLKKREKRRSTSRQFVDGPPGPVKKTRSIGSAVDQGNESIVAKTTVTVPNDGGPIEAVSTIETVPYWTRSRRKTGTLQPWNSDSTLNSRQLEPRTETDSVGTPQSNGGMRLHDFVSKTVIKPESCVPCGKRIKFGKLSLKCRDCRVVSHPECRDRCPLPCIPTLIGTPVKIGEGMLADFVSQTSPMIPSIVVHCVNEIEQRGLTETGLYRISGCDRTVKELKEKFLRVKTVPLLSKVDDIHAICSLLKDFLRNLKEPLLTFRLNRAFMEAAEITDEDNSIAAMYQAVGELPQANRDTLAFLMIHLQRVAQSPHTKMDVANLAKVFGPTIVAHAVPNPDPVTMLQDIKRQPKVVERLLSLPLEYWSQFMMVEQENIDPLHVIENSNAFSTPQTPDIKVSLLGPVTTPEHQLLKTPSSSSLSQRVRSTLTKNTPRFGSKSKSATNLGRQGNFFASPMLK

Cytochrome P450 2C9 = Cytochrome P450 2C9 (Homo sapiens, UniProt P11712)
Chain of Cytochrome P450 2C9 (P11712 whole entry): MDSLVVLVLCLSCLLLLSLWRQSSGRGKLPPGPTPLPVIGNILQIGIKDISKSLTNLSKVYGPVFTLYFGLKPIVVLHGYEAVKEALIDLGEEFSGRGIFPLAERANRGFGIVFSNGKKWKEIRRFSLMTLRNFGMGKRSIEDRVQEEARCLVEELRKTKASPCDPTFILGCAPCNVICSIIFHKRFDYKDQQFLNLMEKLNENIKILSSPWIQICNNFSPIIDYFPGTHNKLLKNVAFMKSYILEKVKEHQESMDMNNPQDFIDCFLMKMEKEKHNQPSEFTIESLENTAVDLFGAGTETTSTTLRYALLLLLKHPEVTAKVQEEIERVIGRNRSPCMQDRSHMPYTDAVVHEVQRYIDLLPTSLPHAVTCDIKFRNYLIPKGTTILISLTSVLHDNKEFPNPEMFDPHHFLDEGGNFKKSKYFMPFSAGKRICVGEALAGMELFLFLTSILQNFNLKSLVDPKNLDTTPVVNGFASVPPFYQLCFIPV

[9] = HEp-2 cell cytotoxicity, dose response, cytotoxicity control for RSV inhibitor project, HTS (AID 2410); assay type: functional; details: human respiratory syncytial virus
[10] = target: T4, Ubiquitin-conjugating enzyme E2 N (Homo sapiens, UniProt P61088); assay type: functional;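 also: Dose-response confirmation in a TR-FRET assay detecting UBC13-driven polyubiquitin chain formation, inhibition measured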
T4 sequence (P61088 whole entry): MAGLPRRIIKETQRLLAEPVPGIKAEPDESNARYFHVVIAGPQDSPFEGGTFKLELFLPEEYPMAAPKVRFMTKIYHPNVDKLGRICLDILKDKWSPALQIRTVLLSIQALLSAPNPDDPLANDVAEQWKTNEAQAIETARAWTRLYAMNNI

[11] = target: T1, Heat shock factor protein 1; experiment: inhibition of MG132-induced HSE-luciferase signal, confirmation, cell-based, NIH3T3, luminescence, dose retest (AID 2382); assay type: functional;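 also: NIH3T3 fibroblasts with HSF1-driven luciferase reporter stressed by proteasome inhibitor MG132; luminescence from HSF1-driven luciferase expression after 8 hours of MG132 stress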
INS1 = experiment: beta cell apoptosis inhibitors, cytokine rescue, dose response, luminescence, retest (AID 449756); assay type: functional, cell-based; details: Rattus norvegicus;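 also: cell death triggered by IL-1 beta plus TNF-alpha plus IFN-gamma mixture; protective hits raise ATP signal compared with cytokine alone wells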
[12] = Luminescence Cell-Based Dose Retest to Confirm Inhibitors of Cancer Stem Cells. [Related pubchem assays (depositor defined):AID2717, AID2721]; assay type: functional; details: Homo sapiens

## COc1ccc(NC(=O)N(C)C[C@H]2Oc3c(NC(=O)Nc4ccc(C(F)(F)F)cc4)cccc3C(=O)N([C@H](C)CO)C[C@@H]2C)cc1
H9c2
  IC50: > 79 µM (inactive)

## Cc1ccc(Nc2c(N)c(=O)oc3ccccc23)cc1
[1]
  EC50: > 260 µM (inactive)
[2]
  EC50: 13.6 µM (active)
[3]
  EC50: 12.3 µM (active)

## Cc1ccc(S(=O)(=O)N(C)C)cc1NC(=O)CSc1ncc(C(F)(F)F)cc1Cl
[2]
  EC50: 88.7 µM (active)
[3]
  EC50: 647 µM (active)

## O=C(Nc1ccc(Cl)c(Cl)c1)Oc1ccc(NC(=O)c2ccco2)cc1
Large T antigen
  IC50: > 100 µM (active)

## COC(=O)c1ccc(N)c(NC=C2C(=O)CC(C)(C)CC2=O)c1
H9c2
  IC50: 6.51 µM (active)

## CC(=O)Nc1ccc(SCCN2CC[C@@H](C(C)(C)C)CCC2=O)cc1
[4]
  IC50: > 66 µM (inactive)
[5]
  IC50: > 66 µM (inactive)
[6]
  AC50: 0.25 µM (active)

## Cc1cc(C(=O)Nc2nnc(-c3ccccc3)s2)no1
[6]
  AC50: 18.9 µM (active)

## COc1cccc(COC(=O)c2sc3nc4n(c(=O)c3c2C)CCC4)c1OC
[7]
  EC50: 1.6 µM (active)
cells
  IC50: 4.36 µM (active)
Streptococcus
  EC50: 8.48 µM (active)

## CCC(=O)Nc1ccc(SC#N)cc1C
[4]
  IC50: > 66 µM (inactive)
[5]
  IC50: > 66 µM (inactive)
[6]
  AC50: 0.497 µM (active)

## CC(=O)Oc1c(-c2ccco2)oc2ccccc2c1=O
cells
  IC50: 23.2 µM (active)

## O=C1/C(=C/c2ccccc2F)SC(=S)N1CCC(=O)N1CCCCC1CCO (stereo not given)
Vero
  CC50: 25 µM (active)

## CCOC(=O)C1CCN(Cc2ccc(-c3ccccc3)cc2)CC1
[8]
  IC50: 151 µM (active)

## CCCc1cc(C(=O)Nc2ccccc2SC)no1
cells
  IC50: 10.5 µM (active)

## CNC(C)Cc1ccccc1Sc1ccc(O)cc1 (stereo not given)
Cytochrome P450 2C9
  AC50: 28.2 µM (inconclusive)
[6]
  AC50: 3.15 µM (active)
Large T antigen
  IC50: 94.4 µM (active)

## CN(C)c1ccc(NC(=O)CC2NCCNC2=O)cc1 (stereo not given)
Large T antigen
  IC50: 10.1 µM (active)

## O=C(COC(=O)Cc1nnc(O)c2ccccc12)Nc1ncc(Cl)cc1Cl
H9c2
  IC50: 15.4 µM (active)

## O=P1(c2ccccc2)Nc2ccccc2N1c1ccccc1 (stereo not given)
[8]
  IC50: 28.8 µM (active)

## CN(C)/N=C/c1ccc(N2CCOCC2)cc1
[8]
  IC50: 51.2 µM (active)

## CCOC(=O)N1CCN(S(=O)(=O)c2ccc(C(=O)Nc3nc4c(s3)CC(C)CC4)cc2)CC1 (stereo not given)
[2]
  EC50: 1.25 µM (active)
[3]
  EC50: 1.7 µM (active)

## O=C(Oc1ccc2c(-c3ccccc3)cc(=O)oc2c1)C1CCCCC1
H9c2
  IC50: 34.3 µM (inactive)

## CCN(CC)C(=O)CC(c1ccc(N(C)C)cc1)c1c(OC)cc(OC)c2ccc(=O)oc12 (stereo not given)
[6]
  AC50: 3.89 µM (active)

## COc1ccc(C(=O)COC(=O)c2ccc(NC(=O)c3ccccc3)cc2)cc1
[2]
  EC50: 41.1 µM (active)
Cytochrome P450 2C9
  AC50: 1.41 µM (inconclusive)
[3]
  EC50: 49.9 µM (active)

## CCOc1cc2c(cc1O)C(=NOC)CC1C2CCC2(C)C(O)CCC12 (stereo not given)
Vero
  CC50: 5.94 µM (active)

## O=C(NCc1nnc(O)c2ccccc12)C1CC(=O)N(c2ccccc2)C1 (stereo not given)
H9c2
  IC50: > 79 µM (inactive)

## CC(=O)Nc1ccc(NC(=O)C(C)OC(=O)COc2ccc(Nc3ccccc3)cc2)cc1 (stereo not given)
[8]
  IC50: 111 µM (active)

## O=C1CCCC2=C1C(c1ccc(Cl)cc1)n1c(s/c(=C\c3ccc4ccncc4c3)c1=O)=N2 (stereo not given)
[1]
  EC50: 146 µM (active)
Vero
  CC50: > 25 µM (active)
[9]
  CC50: 31.8 µM (active)

## Nc1nc2ccc(-c3nc4ccccc4o3)cc2s1
[6]
  AC50: 2.44 µM (active)

## O=C1c2ccccc2C(=O)C12OC2c1ccc(Cl)cc1Cl (stereo not given)
[2]
  EC50: 29.6 µM (active)
[3]
  EC50: 20.3 µM (active)

## CCC1(C)Cc2c(sc3nc(NN)n(C)c(=O)c23)CO1 (stereo not given)
H9c2
  IC50: > 79 µM (inactive)

## O=C(c1ccco1)N1CCN(Cc2cccc([N+](=O)[O-])c2)CC1
[8]
  IC50: 127 µM (active)

## O=C(/C=C/NNC(=O)c1ccccc1)c1ccc(Br)cc1
[1]
  EC50: 39.1 µM (active)
H9c2
  IC50: 12.4 µM (active)

## CCC(C)[C@H]1CNCCN1CCc1cc(C(F)(F)F)cc(C(F)(F)F)c1 (stereo not given in full)
[10]
  IC50: > 20 µM (inactive)

## COc1ccc(S(=O)(=O)N/N=C(/C)c2ccncc2)c(OC)c1
[6]
  AC50: 0.832 µM (active)

## CCN(CC)S(=O)(=O)c1ccc(C)c(NC(=O)CN2CCN(C)CC2)c1
[8]
  IC50: 118 µM (active)

## COC(=O)C1=C(C)N(CCc2ccc(OC)cc2)C(=O)C1
H9c2
  IC50: > 79 µM (inactive)

## Nc1cc(CN2C(=O)c3ccccc3C2=O)cc(Cl)c1O
Large T antigen
  IC50: 8.42 µM (active)

## CCc1ccc(/C=N/NC(=O)Cc2cccn2C)cc1
[6]
  AC50: 13.4 µM (active)

## CCCn1c(SC(C(=O)Nc2cccc(OC)c2)c2ccccc2)nc2ccccc2c1=O (stereo not given)
H9c2
  IC50: > 79 µM (inactive)

## O=C(Nc1ccncc1)C1CCN(S(=O)(=O)c2cccc(C(F)(F)F)c2)CC1
[10]
  IC50: > 20 µM (inactive)

## CC(C)C(=O)Nc1ccc(O)c(-c2csc(N)n2)c1
Large T antigen
  IC50: 46.3 µM (active)

## CCCC(=O)Nc1nc2ccc(NC(=O)c3ccc(Br)o3)cc2s1
H9c2
  IC50: > 79 µM (inactive)

## CCn1c(S)nnc1-c1ccc2[nH]c(C)c(C)c2c1
[6]
  AC50: 2.49 µM (active)
[11]
  EC50: > 195 µM (not active)

## Cc1cc2nc(NCCCO)n(CC(=O)c3cc(C(C)(C)C)c(O)c(C(C)(C)C)c3)c2cc1C
INS1
  AC50: 8.03 µM (active)
[12]
  AC50: 3.14 µM (active)
[10]
  IC50: > 20 µM (inactive)

## CCC1(C)N=C(N)Nc2nc3cc(C)c(C)cc3n21 (stereo not given)
[1]
  EC50: > 260 µM (inactive)
[6]
  AC50: 4.1 µM (active)

## COc1ccccc1NS(=O)(=O)c1ccc(C)c(C(=O)N2CCN(c3ccc(O)cc3)CC2)c1
[8]
  IC50: 24.2 µM (active)
[6]
  AC50: 0.022 µM (active)

## COc1ccc(NCCc2ccccn2)cc1
Large T antigen
  IC50: 19.3 µM (active)

## Nc1nc(-c2ccco2)cs1
Large T antigen
  IC50: 79.2 µM (active)

## COc1ccc(OC(=O)COc2cc(C)ccc2C)cc1
[8]
  IC50: 37.7 µM (active)

## COCCN(Cc1nc(O)c2ccccc2n1)C(=O)COc1ccccc1-c1ccccc1
Vero
  CC50: > 25 µM (active)

## Cc1ccccc1C1c2[nH]c3ccccc3c2C[C@H]2C(=O)N(c3ccccc3C(=O)NCCCN3CCOCC3)C(=O)N12 (stereo not given in full)
H9c2
  IC50: 15.3 µM (active)

## CCOC(=O)C1CCN(c2cc3c(cc2NC(=O)c2ccc(OC)c(OC)c2)n(C)c(=O)n3C)CC1
H9c2
  IC50: 26.8 µM (active)

## Nc1ccc2[nH]c(-c3cccs3)nc2c1
H9c2
  IC50: 15.5 µM (active)
Large T antigen
  IC50: 11.9 µM (active)

## CCN1CCN(CCOc2ccc(Br)cc2C)CC1
[8]
  IC50: 73.2 µM (active)

## CCC(/C=C1\Sc2ccc(OC)cc2N1CCCS(=O)(=O)[O-])=C\c1sc2ccc(OC)cc2[n+]1CC
INS1
  AC50: 3.3 µM (active)
[6]
  AC50: 8.75 µM (active)

## CCCCC(=O)Nc1ccc2c3c(cccc13)C(=O)N2CC
[10]
  IC50: > 20 µM (inactive)
